Counter-ions that a name gives are not always drawn.

Series [1] deals with β-III overexpressing HeLa cells. Put plainly: Cell proliferation. It is filed as cell-based.
Series [2] concerns Pgp overexpressing NCI/ADR-RES cells. Put plainly: Cell proliferation. Type of series: cell-based. Particulars: Homo sapiens, 96 h, read-out: Pgp overexpressing NCI/ADR-RES IC50 (µM) ± SD.
Series [3] concerns Parental OVCAR-8 cells. Put plainly: Cell proliferation. Type of series: cell-based. Particulars: Homo sapiens, OVCAR-8, 96 h, read-out: Parental OVCAR-8 IC50 (µM) ± SD.
In series [4] the test system is BLBC MDA-MB-435 and U251 glioma xenografts, 4T1 triple negative breast allograft. Particulars: cited from earlier work.
Series [5] has as its target T1, purified bovine brain tubulin (Bos taurus, UniProt P81947+Q6B856). Particulars: read-out: tubulin assembly IC50 (µM) ± SD; cited from earlier work.
The target of series [6] is T1, purified bovine brain tubulin. Put plainly: Tubulin assembly assay. It is filed as biochemical. Particulars: ratio of tubulin assembly IC50 vs 5.
Series [7] concerns WT HeLa cells. Put plainly: Cell proliferation. Particulars: Homo sapiens, 96 h, read-out: WT HeLa IC50 (µM) ± SD. Type of series: cell-based.

T1 sequence (P81947 whole entry): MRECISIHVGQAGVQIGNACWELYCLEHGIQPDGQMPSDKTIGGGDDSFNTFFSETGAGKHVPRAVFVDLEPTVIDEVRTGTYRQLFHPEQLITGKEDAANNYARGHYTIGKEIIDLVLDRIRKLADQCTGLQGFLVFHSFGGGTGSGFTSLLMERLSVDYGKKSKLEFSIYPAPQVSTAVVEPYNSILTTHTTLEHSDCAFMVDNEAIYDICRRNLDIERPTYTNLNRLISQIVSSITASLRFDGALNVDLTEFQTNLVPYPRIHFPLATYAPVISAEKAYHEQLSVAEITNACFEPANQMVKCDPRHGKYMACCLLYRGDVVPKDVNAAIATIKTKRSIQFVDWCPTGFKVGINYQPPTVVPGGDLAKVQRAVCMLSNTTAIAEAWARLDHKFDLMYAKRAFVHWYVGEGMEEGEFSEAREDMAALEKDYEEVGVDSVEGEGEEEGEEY
T1 sequence (Q6B856 whole entry): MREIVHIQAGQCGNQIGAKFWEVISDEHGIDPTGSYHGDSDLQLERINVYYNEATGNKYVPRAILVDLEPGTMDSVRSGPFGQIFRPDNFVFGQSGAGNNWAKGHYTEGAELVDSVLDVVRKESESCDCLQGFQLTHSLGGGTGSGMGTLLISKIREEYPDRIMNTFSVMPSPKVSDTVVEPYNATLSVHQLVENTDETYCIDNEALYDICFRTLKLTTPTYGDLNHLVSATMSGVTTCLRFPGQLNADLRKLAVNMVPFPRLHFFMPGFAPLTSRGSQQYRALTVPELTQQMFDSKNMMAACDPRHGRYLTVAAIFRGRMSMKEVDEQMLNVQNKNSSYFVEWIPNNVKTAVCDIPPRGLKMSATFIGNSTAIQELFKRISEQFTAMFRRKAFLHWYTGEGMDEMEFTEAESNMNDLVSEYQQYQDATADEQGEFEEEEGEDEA

With `CC(=O)O[C@H]1C(=O)[C@@]2(C)[C@H]([C@H](OC(=O)c3ccccc3)[C@]3(O)C[C@H](OC(=O)[C@H](O)[C@@H](NC(=O)c4ccccc4)c4ccccc4)C(C)=C1C3(C)C)[C@]1(OC(C)=O)CO[C@@H]1C[C@@H]2O` [Paclitaxel, paclitaxel], the IC50 stood at 0.016 ± 0.001 µM in series [1] (Homo sapiens, HeLa, 96 h, read-out: β-III overexpressing HeLa IC50 (µM) ± SD); 2.5 µM in series [2]; 0.005 ± 0.001 µM in series [3].
On to `COc1ccc(N(C)c2nc(C)nc3c(Cc4ccccc4)c[nH]c23)cc1` [Compound 3], for which the toxicity to animals entry in series [4] was “without overt toxicity”. For the same compound, the “tumor size and vascularity” value in series [4] (two flank xenograft models and 4T1 orthotopic allograft) is “reduced tumor size and vascularity”. Also, the IC50 in series [5] was 21 ± 1 µM.
As for `COc1ccc2c(c1)CCCN2c1nc(C)nc2c(Cc3ccccc3)c[nH]c12` [5·HCl, 1-(7-benzyl-2-methyl-5H-pyrrolo[3,2-d]pyrimidin-4-yl)-6-methoxy-1,2,3,4-tetrahydroquinoline hydrochloride], the IC50 in series [3] amounted to 0.12 ± 0.004 µM.
As to `COc1ccc(N(C)c2nc(C)nc3c(Cc4ccccc4)cn(C)c23)cc1.Cl` [7·HCl, 7-benzyl-N-(4-methoxyphenyl)-N,2,5-trimethyl-5H-pyrrolo[3,2-d]pyrimidin-4-amine hydrochloride], the “fold less potent in βIII-tubulin overexpressing HeLa than in wild type HeLa” value in series [1] (isogenic HeLa cell line pair) is reported as “equal potency”. For the same compound, in series [6], the “fold more potent than 5 in tubulin assembly” value is around 7 fold.
For `COc1ccc(/C=C\c2cc(OC)c(OC)c(OC)c2)cc1O` [CA, combretastatin A-4], the IC50 in series [7] came out at 0.0018 ± 0.0004 µM.

The values above are taken from PMC5191990 (Bioorganic & medicinal chemistry, 2016).
